Test results reported in ChEMBL document CHEMBL3108774, “Azaindoles: noncovalent DprE1 inhibitors from scaffold morphing efforts, kill Mycobacterium tuberculosis and are efficacious in vivo” (J Med Chem, 2013).
Values after ≈ are worked out from the molar mass of the structure shown.

Experiments:
Format in all cases: functional
[1] = system: Mycobacterium tuberculosis; experiment: Antimicrobial activity against Mycobacterium tuberculosis H37Rv ATCC 27294 harboring DprE1 Y314H mutant assessed as growth inhibition after 5 days by microdilution method
[2] = system: Mycobacterium tuberculosis; experiment: Antimicrobial activity against Mycobacterium tuberculosis H37Rv ATCC 27294 harboring DprE1 C387S mutant assessed as growth inhibition after 5 days by microdilution method
[3] = system: Mycobacterium tuberculosis; experiment: Antimicrobial activity against Mycobacterium tuberculosis H37Rv ATCC 27294 overexpressing DprE1 assessed as growth inhibition after 5 days by microdilution method; conditions: H37Rv ATCC 27294, 120 h
[4] = system: Mycobacterium tuberculosis; experiment: Antimicrobial activity against Mycobacterium tuberculosis H37Rv ATCC 27294 harboring DprE1 C387G mutant assessed as growth inhibition after 5 days by microdilution method

Row | Structure (SMILES) | MIC [1] | MIC [2] | MIC [3] | MIC [4]
1 | COc1ncnc(Cn2cc(C(=O)NCCO)c3ncc(C)cc32)c1C [TBA-7371] | >200 µM | 0.39 µM (≈ 0.139 µg/mL) | 100 µM (≈ 35.5 µg/mL) | 0.78 µM (≈ 0.277 µg/mL)
2 | COc1ncnc(Cn2cc(C(=O)NCCF)c3ncc(C)cc32)c1C | >200 µM | 0.39 µM (≈ 0.139 µg/mL) | 6.25 µM (≈ 2.23 µg/mL) | 0.39 µM (≈ 0.139 µg/mL)
3 | COc1ncnc(Cn2cc(C(=O)NCCF)c3ncccc32)c1C | >100 µM | 3.12 µM (≈ 1.07 µg/mL) | 50 µM (≈ 17.2 µg/mL) | 0.78 µM (≈ 0.268 µg/mL)
